Reference: patent US4663340A, “Alpha-adrenoreceptor agonistic 2-[(2-cyclopropyl-5-methyl- or 2-cyclopropyl-5-chlorophenoxy)methyl]-2-imidazolines” (priority 1984, dated 1987)
Entries after “also recorded” stand apart in the source; their conditions may differ.

Experiments:
[1] = system: postsynaptic α2-adrenoceptor; test: Vasoconstrictor effect in pithed rat after specific postsynaptic α2-adrenoceptor antagonist yohimbine; type: in vivo, Wistar rat; settings: for ED50 after yohimbine: I.V.; for ED50 after yohimbine / antagonism of vasoconstrictor effect by yohimbine / ED50 after / ED50 before yohimbine: yohimbine 60 μg/kg/min./5 mins.; for antagonism of vasoconstrictor effect by yohimbine / postsynaptic α2-adrenoceptor agonist properties: in words
Excerpt: (§1) (1) The vaso-constrictor properties and potency of the compounds (I) object of the present invention have been investigated and quantified in the anaesthetized pithed rat by determination of their dose-[…] response curves after intravenous administration, according to the technique described by Shipley and Tilden (Proceedings of Society of Experimental Biology, 1947, 64, pages 453-455). This technique allows assessment of the postsynaptic α-adrenoceptor agonist properties of a drug. […] For each of these drugs, log of cumulative doses-hypertensive response curves after intravenous administration have been drawn in groups of eight Wistar rats, anaesthetized, pithed, bilaterally vagotomized, atropinized and treated with d-tribocurarine. ED50 s (doses in mg/kg of the base inducing 50% of the maximal response) were then calculated for each drug and compared to those of the reference compounds.
(§2) For each of the three drugs log of cumulative doses-hypertensive response curves after intravenous administration have been drawn and their ED50 s (in μg per kg) were calculated before and after administration of the antagonists in groups of 8 animals each.

[2] = system: α1-adrenoceptor; test: Vasoconstrictor effect in pithed rat after reserpine pre-treatment (direct action); type: in vivo, Wistar rat; settings: except in very high doses
Excerpt: as §1
(a) ND 83201 is a directly acting α1 -adrenoceptor agonist.

[3] = system: postsynaptic α1-adrenoceptor; settings: literature; cited from earlier work
[4] = system: postsynaptic α1-adrenoceptor; test: Vasoconstrictor effect in pithed rat after specific postsynaptic α1-adrenoceptor antagonist prazosine; type: in vivo, Wistar rat; settings: for ED50 after prazosine: I.V.
Excerpt: as §1, §2

[5] = system: postsynaptic α1-adrenoceptor; test: Vasoconstrictor (hypertensive) dose-response in anaesthetized pithed rat, i.v.; type: in vivo, Wistar rat; settings: for Relative power towards Cirazoline: Table I; for Relative power towards Cirazoline / ED50 / potency relative to Cirazoline / potency relative to Fenoxazoline: pithed rat; for ED50 (before antagonists): Table II, before administration of antagonists; for ED50: dose of base inducing 50% of maximal response
Excerpt: as §1
Table I reports the values of these ED50 s. It appears from this table that compounds ND 83201 and ND 83204 are the most powerful vaso-constrictor agents, their potency being about 1.75 times that of Cirazoline and three times that of Fenoxazoline.

[6] = system: presynaptic α2-adrenoceptor; test: Presynaptic α2-adrenoceptor agonist activity: reduction of induced submaximal tachycardia in pithed rat; type: in vivo, Wistar rat; settings: for effect on induced submaximal tachycardia / presynaptic α2-adrenoceptor agonist activity: electrically stimulated spinal cord
[7] = Stability of aqueous solution (hydrolysis of the imidazoline cycle); type: physicochemical; settings: 1 per mill aqueous solution, room temperature
[8] = system: presynaptic α2-adrenoceptor; test: Presynaptic α2-adrenoceptor antagonist activity: restoration of tachycardia reduced by clonidine in pithed rat; settings: for Heartbeat frequency under electric stimulation (supramaximal tachycardia): before clonidine and tested substance; for Heartbeat frequency under electric stimulation and after clonidine: clonidine 40 μg/kg, I.V., before tested substance; for restoration of submaximal tachycardia / presynaptic α2-adrenoceptor antagonist activity: in words, after clonidine 40 μg/kg I.V.
[9] = Solubility in water; type: physicochemical; settings: hydrochloride
[10] = system: β-adrenoceptor; test: Vasoconstrictor ED50 after β-adrenoceptor antagonist pretreatment (β-adrenoceptor postsynaptic agonist activity); type: in vivo, Wistar rat; settings: propranold 150 μg/kg/min/5 min
Excerpt: (d) ND 83201 has no β-adrenoceptor postsynaptic agonist activity.

SMILES | ED50 after yohimbine [1] [µg/kg] | antagonism of vasoconstrictor effect by yohimbine [1] | ED50 after / ED50 before yohimbine [1] | effect of reserpine pre-treatment on vasoconstrictor effects [2] | ED50 after prazosine ([4]; prazosine 20 μg/kg/min./5 min.) [µg/kg] | ED50 after / ED50 before prazosine ([4]; prazosine 20 μg/kg/min./5 min.) | Relative power towards Cirazoline [5] | ED50 (before antagonists) [5] [µg/kg] | ED50 [5] [µg/kg] | effect on induced submaximal tachycardia / presynaptic α2-adrenoceptor agonist activity [6] | Heartbeat frequency under electric stimulation (supramaximal tachycardia) [8] | Heartbeat frequency under electric stimulation and after clonidine [8] | restoration of submaximal tachycardia / presynaptic α2-adrenoceptor antagonist activity [8] | also measured
CC(C)c1ccccc1OCC1=NCCN1 [Fenoxazoline] | 1.804 ± 0.237 | almost not antagonized by yohimbine | 1.01 | not, except in very high doses, modified | 16.205 ± 1.240 | 9.05 | 0.62 | 1.790 ± 0.147 | 1.790 ± 0.147 | – | – | – | – | known vasoconstrictor / postsynaptic α1-adrenoceptor agonist activity [3]: postsynaptic α1 -adrenoceptor agonist
c1ccc(C2CC2)c(OCC2=NCCN2)c1 [Cirazoline, (2'-cyclopropyl)-2-phenyloxymethyl-Δ2-imidazoline] | 1.180 ± 0.108 | almost not antagonized by yohimbine | 1.05 | not, except in very high doses, modified | 8.568 ± 0.721 | 7.75 | 1 | 1.105 ± 0.132 | 1.105 ± 0.132 | completey devoid of any presynaptic α2 -adrenoceptor agonist activity and no | 452.1 ± 10.5 | 395.7 ± 14.1 | neither and no effect and no | postsynaptic α2-adrenoceptor agonist properties [1]: no postsynaptic α2-adrenoceptor agonist; known vasoconstrictor / postsynaptic α1-adrenoceptor agonist activity [3]: the most powerful and specific postsynaptic α1-adrenoceptor agonist known up to now; also recorded: powerful nasal vasoconstrictor; nature of agonist effect (postsynaptic α1-adrenoceptor) ([4]; in words): specific and direct postsynaptic α1 -adrenoceptor agonist effects; appearance of hydrolysis product (amino-amide (V)) in aqueous solution [7]: after a few days the appearance of the cleaving product by hydrolysis of the imidazoline cycle
Cc1ccc(C2CC2)c(OCC2=NCCN2)c1 [ND 83201, (5'-methyl-2'-cyclopropyl)-2-phenyloxymethyl-Δ2-imidazoline] | 0.805 ± 0.076 | almost not antagonized by yohimbine | 1.25 | not, except in very high doses, modified | 7.284 ± 0.974 | 11.56 | 1.75 | 0.630 ± 0.060 | 0.630 ± 0.060 | completey devoid of any presynaptic α2 -adrenoceptor agonist activity and no | 448.7 ± 7.7 | 391.2 ± 5.9 | no presynaptic α2 -adrenoceptor antagonist activity and no effect and no | postsynaptic α2-adrenoceptor agonist properties [1]: no postsynaptic α2-adrenoceptor agonist; effect on induced submaximal tachycardia / presynaptic α2-adrenoceptor agonist activity ([6]; listed as ND 83 201): no presynaptic α2 -adrenoceptor agonist activity; nature of agonist effect (postsynaptic α1-adrenoceptor) ([4]; in words): specific and direct postsynaptic α1 -adrenoceptor agonist effects; antagonism of vasoconstrictor effect by prazosine ([4]; in words, prazosine 20 μg/kg/min./5 min.): strongly antagonized by prazosine and even slightly more than those of Cirazoline and Fenoxazoline; potency relative to Cirazoline [5]: about 1.75 times; potency relative to Fenoxazoline [5]: three; solubility in water [9]: not very soluble in water; ED50 change after β-adrenoceptor antagonist / β-adrenoceptor postsynaptic agonist activity [10]: not modified
CCCCCc1ccc(C2CC2)c(OCC2=NCCN2)c1 [ND 83 203, (5'-n-pentyl-2'-cyclopropyl)-2-phenyloxymethyl-Δ2-imidazoline] | – | – | – | – | – | – | 0.015 | – | 74.182 ± 6.667 | – | – | – | – | –
Clc1ccc(C2CC2)c(OCC2=NCCN2)c1 [ND 83 204, (5'-chloro-2'-cyclopropyl)-2-phenoxymethyl-Δ2-imidazoline] | – | – | – | – | – | – | 1.72 | – | 0.644 ± 0.050 | – | – | – | – | potency relative to Cirazoline [5]: about 1.75 times; potency relative to Fenoxazoline [5]: three; appearance of hydrolysis product (amino-amide (V)) in aqueous solution [7]: even after one month, no trace of hydrolysis is yet detectable; solubility in water [9]: not very soluble in water
Clc1cccc(Cl)c1N=C1NCCN1 [clonidine] | – | – | – | – | – | – | – | – | – | reduced the submaximal tachycardia | – | – | – | antagonism of clonidine effect by yohimbine ([6]; submaximal tachycardia): effect antagonized by yohimbine
Brc1ccc(C2CC2)c(OCC2=NCCN2)c1 [ND 83 202, (5'-bromo-2'-cyclopropyl)-2-phenoxymethyl-Δ2-imidazoline] | – | – | – | – | – | – | 0.25 | – | 4.422 ± 0.329 | – | – | – | – | –
Cc1ccc(N(CC2=NCCN2)c2cccc(O)c2)cc1 [Phentolamine] | – | – | – | – | – | – | – | – | – | – | 455.6 ± 11.5 | 411.2 ± 8.9 | resores sub-maximal tachycardia | –
